Source: patent US9140688B2, “Sperm staining and sorting methods” (INGURAN, LLC, priority 2011, dated 2015)

Key:
[1] = test system: membrane compromised bovine sperm stained with Hoechst 33342; test: Dead quenching: dead gate intensity divided by live gate intensity, flow cytometry of stained bovine sperm; assay type: cell-based; settings: for Dead Intensity (dead gate intensity divided by live gate intensity): Ex 5; for Intensity (dead gate): Hoechst 48 μM
Source text: FIG. 4 illustrates an example bivariate plot and univariate histogram of the parameters measured during sex selection by a FACS on a flow cytometer. […] Without a dead quenching dye, both populations of sperm would overlap to a large extent, with unpredictable variations in the dead sperm.
The entire ejaculate of sperm was suspended in first staining buffer, specifically a 7.4 pH TALP described in TABLE 1, to a concentration of 160×10^6 sperm per mL (determined on nucleocounter) and divided into three aliquots of about 20 mL into 50 mL Falcon tubes and pre-warmed for 10 minutes at 34° C. The DNA selective fluorescent dye, Hoechst 33342, was added and samples were held at 34° C. for 60 minutes. 3 different Hoechst 33342 Stain Levels were used=12 μL, 14 μL and 16 μL per 2 mL (effective concentrations of 48 μM, 56 μM, 64 μM).
Preparation of the second buffer including the dead quenching dye—A 2 L bag of TALP, described in TABLE 1, was adjusted to pH 5.60 using HCl and then sterile filtered. […] For each of the four dyes tested (R40—red food dye No. 40, Y5—yellow food dye No. 5, Y6—yellow food dye No. 6 and PR—phenol red), an appropriate number of milligrams of each powder was placed in a Erlenmeyer Flask and then an exact amount of TALP pH 5.60 was added to create a […] concentration of the dye. The result was a working TALP stock for each dye with a 100% (125 μM) relative amount of dye 50% relative (62.5 μM) and 20% relative (25 μM) solutions were made by dilution of 100% by TALP pH 5.60.
After this “bulk” staining for 60 minutes, 1 mL aliquots of stained sperm were combined with 1 mL aliquots of the second buffer including the dead quenching dyes. Samples sat for approximately 30 minutes at room temperature before being analyzed on a MoFlo SX (Beckman Coulter, USA) sperm sorting flow cytometer. Event rates were held as close to 13,000 as possible at the point of data acquisition.
The total number of individual treatments was 42 tubes, each containing 2 mL of stained sample. The alignment of the sorter was established using nuclei and confirmed with live sample from the 50% Red 40 series. Once good alignment was established, each tube was placed on the sorter long enough to establish a stabile dead gate population (about 30 seconds) and then a screenshot was taken and saved as a .jpeg image. This approach of rapidly documenting each sample is used to assure the most consistent alignment between all samples. Realignment of sorter will not cause differences in the intensities of live and dead gate populations but will cause differences in split quality.
FIG. 4 illustrates an example histogram. The ratio of dead gate intensity divided by live gate intensity is created by dividing the distance “A” by the distance “B” shown as a percentage. Lower values mean higher levels of quenching. The ratio of peak height divided by valley height is created by dividing the distance “C” by the distance “D”. A value of 1.00 means “no split” while higher values mean “better splits”. […]

[2] = solvent water; shorter-wavelength local maximum; cited from earlier work
[3] = test system: X- and Y-chromosome bearing bovine sperm stained with Hoechst 33342; test: Split quality: height of peak divided by height of valley (PV), flow cytometry of stained bovine sperm; assay type: cell-based; settings: for Height of Peak/Height of Valley: Ex 5; for PV: Ex 6, resulting pH 6.70
sperm = settings: background statement; cited from earlier work
[4] = dye 62.5 μM, Hoechst 12 μL/2 mL
[5] = dye 62.5 μM, Hoechst 14 μL/2 mL
[6] = dye 62.5 μM, Hoechst 16 μL/2 mL

O=C([O-])C1=NN(c2ccc(S(=O)(=O)[O-])cc2)C(=O)/C1=N/Nc1ccc(S(=O)(=O)[O-])cc1.[Na+].[Na+].[Na+] [Yellow 5, Trisodium (4E)-5-oxo-1-(4-sulfonatophenyl)-4-[(4-sulfonatophenyl)hydrazono]-3-pyrazolecarboxylate]
Dead Intensity (dead gate intensity divided by live gate intensity) ([1]; dye 25 μM, Average of Hoechst levels): 90%
Dead Intensity (dead gate intensity divided by live gate intensity) ([1]; dye 25 μM, Hoechst 12 μL/2 mL): 90%
Dead Intensity (dead gate intensity divided by live gate intensity) ([1]; dye 25 μM, Hoechst 14 μL/2 mL): 90%
Dead Intensity (dead gate intensity divided by live gate intensity) ([1]; dye 25 μM, Hoechst 16 μL/2 mL): 90%
Dead Intensity (dead gate intensity divided by live gate intensity) ([1]; dye 62.5 μM, Average of Hoechst levels): 74%
Dead Intensity (dead gate intensity divided by live gate intensity) [1, 4]: 74%
Dead Intensity (dead gate intensity divided by live gate intensity) [1, 5]: 77%
Dead Intensity (dead gate intensity divided by live gate intensity) [1, 6]: 70%
Dead Intensity (dead gate intensity divided by live gate intensity) ([1]; dye 125 μM, Average of Hoechst levels): 57%
Dead Intensity (dead gate intensity divided by live gate intensity) ([1]; dye 125 μM, Hoechst 12 μL/2 mL): 54%
Dead Intensity (dead gate intensity divided by live gate intensity) ([1]; dye 125 μM, Hoechst 14 μL/2 mL): 63%
Dead Intensity (dead gate intensity divided by live gate intensity) ([1]; dye 125 μM, Hoechst 16 μL/2 mL): 55%
amount of dye needed for a similar dead gate intensity ratio as red food dye No. 40 and yellow food dye No. 6 ([1]; Ex 6): about five times as much
Intensity (dead gate) ([1]; Ex 6, dye 125 μM, resulting pH 6.70): 63%
Intensity (dead gate) ([1]; Ex 6, dye 250 μM, resulting pH 6.70): 48%
Intensity (dead gate) ([1]; Ex 6, dye 500 μM, resulting pH 6.70): 43%
Intensity (dead gate) ([1]; Ex 6, dye 750 μM, resulting pH 6.70): <30%
Intensity (dead gate) ([1]; Ex 6, dye 875 μM, resulting pH 6.70): <30%
Intensity (dead gate) ([1]; Ex 6, dye 1250 μM, second buffer pH 5.60 (resulting pH 6.70)): <30%
Expected Absorption Maxima [2]: 422 nm
Height of Peak/Height of Valley ([3]; dye 25 μM, Average of 12 and 14 μL series): 1.72
Height of Peak/Height of Valley ([3]; dye 25 μM, Hoechst 12 μL/2 mL): 1.90
Height of Peak/Height of Valley ([3]; dye 25 μM, Hoechst 14 μL/2 mL): 1.54
Height of Peak/Height of Valley ([3]; dye 25 μM, Hoechst 16 μL/2 mL): 1.00
Height of Peak/Height of Valley ([3]; dye 62.5 μM, Average of 12 and 14 μL series): 1.65
Height of Peak/Height of Valley [3, 4]: 1.60
Height of Peak/Height of Valley [3, 5]: 1.70
Height of Peak/Height of Valley [3, 6]: 1.00
Height of Peak/Height of Valley ([3]; dye 125 μM, Average of 12 and 14 μL series): 1.82
Height of Peak/Height of Valley ([3]; dye 125 μM, Hoechst 12 μL/2 mL): 1.72
Height of Peak/Height of Valley ([3]; dye 125 μM, Hoechst 14 μL/2 mL): 1.92
Height of Peak/Height of Valley ([3]; dye 125 μM, Hoechst 16 μL/2 mL): 1.03
PV ([3]; dye 125 μM, Hoechst 48 μM): 1.00
PV ([3]; dye 250 μM, Hoechst 48 μM): 1.00
PV ([3]; dye 500 μM, Hoechst 48 μM): 1.00
PV ([3]; dye 750 μM, Hoechst 48 μM): 1.00
PV ([3]; dye 875 μM, Hoechst 48 μM): 1.00
PV ([3]; dye 1250 μM, Hoechst 48 μM (understained)): 1.00

CC[N+](C)(CC)CCC[n+]1c(-c2ccccc2)c2cc(N)ccc2c2ccc(N)cc21.[I-].[I-] [propidium iodine]
toxicity to sperm (sperm): toxic to sperm
